According to patent publication EP0326329B1, “Quinazoline derivatives useful as insecticides” (Dow AgroSciences LLC, priority 1988, dated 1989):
Where two headings read alike, the source gives them in different places.

Legend:
Format in all cases: in vivo
[1] = tested on: Southern corn rootworm (Diabrotica undecimpuctata howardi Barber); test: Mite/insect screen, soil treatment (CRW); conditions: Diabrotica, percent mortality, soil treatment, read-out: CRW RESULTS %
In short: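 Five 2–3 instar larvae were placed on dry sandy soil with a presoaked corn seed after the soil had received 1 mL of compound solution and dried 6–12 h; cups were kept capped at 23°C. Mortality (%) and phytotoxicity were read after standard exposure. Formulation: acetone/alcohol with emulsifiers, water-diluted.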

[2] = tested on: Erysiphe graminis tritici (powdery mildew); test: Greenhouse Test 1, foliar spray fungicide screen (POWD MDEW), host wheat; conditions: disease control rating, 400 ppm (+++ at 100 ppm)
[3] = tested on: Puccinia recondita tritici (leaf rust); test: Greenhouse Test 1, foliar spray fungicide screen (LEAF RUST), host wheat; conditions: disease control rating, 400 ppm (+++ at 100 ppm)
[4] = tested on: melon aphids (Aphis gossypii Glover); test: Mite/insect screen, sprayed squash cotyledons (MA); conditions: Aphis gossypii, percent mortality, read-out: MA RESULTS %
In short: (§1)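 Water-diluted formulations of each compound (acetone/alcohol 50:50 with 23 g/L and 13 g/L emulsifier blends) are sprayed over both leaf faces to runoff. After a standard exposure period, percent kill and phytotoxicity are recorded.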

[5] = tested on: Pyricularia oryzae (rice blast); conditions: disease control rating, foliar spray, host rice; 400 ppm (+++ at 100 ppm)
[6] = tested on: southern armyworm (Spodopetra eridania Cramer); test: Mite/insect screen, sprayed squash leaves (SAW); conditions: Spodoptera eridania, percent mortality, read-out: SAW RESULTS %
In short: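 Acetone/alcohol (50:50) + emulsifier blends 23 g/L and 13 g/L; water dilution to test concs. Spray both leaf surfaces to runoff, dry 1 h. For armyworm, 2 excised uninfested leaves into Petri dish with larvae. Readout: % mortality, phytotoxicity.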

[7] = tested on: Twospotted spider mites (Tetranychus urticae Koch); test: Mite/insect screen, sprayed squash cotyledons (SM); conditions: Tetranychus urticae, percent mortality, read-out: SM RESULTS %
In short: as §1

[8] = tested on: Pseudoperonospora cubensis (downy mildew); test: Greenhouse Test 1, foliar spray fungicide screen (DOWN MDEW), host squash; conditions: disease control rating, 400 ppm (+++ at 100 ppm)
[9] = tested on: Botrytis cinerea (gray mold); test: Greenhouse Test 1, foliar spray fungicide screen (GRAY MOLD), host grape berries; conditions: disease control rating, 400 ppm (+++ at 100 ppm)

| SMILES | mortality at 24 ppm ([1]; CRW rate 24.00 ppm) [%] | POWD MDEW [2] | LEAF RUST [3] | mortality at 400 ppm ([4]; spray rate 400 ppm) [%] | RICE BLAST [5] | mortality at 400 ppm ([6]; spray rate 400 ppm) [%] | mortality at 400 ppm ([7]; spray rate 400 ppm) [%] | DOWN MDEW [8] | GRAY MOLD [9] | mortality at 12 ppm ([1]; CRW rate 12.00 ppm) [%] | mortality at 200 ppm ([4]; spray rate 200 ppm) [%] | mortality at 200 ppm ([6]; spray rate 200 ppm) [%] | mortality at 200 ppm ([7]; spray rate 200 ppm) [%] | further results |
| --- | --- | --- | --- | --- | --- | --- | --- | --- | --- | --- | --- | --- | --- | --- |
| Fc1ccccc1CCOc1ncnc2ccccc12 [Example 48, 4-[2-(2-fluorophenyl)ethoxy]quinazoline] | 0 | +++ (+++ = 90-100% control at 100 ppm) | +++ (+++ = 90-100% control at 100 ppm) | 100 | + (+ = 20-89% control at 400 ppm) | 0 | 90 | ++ (++ = 90-100% control at 400 ppm) | - (- = 0-19% control at 400 ppm) | – | – | – | – | – |
| CC(C)c1ccc(CCCCOc2ncnc3ccccc23)cc1 [Example 168, 4-[4-[4-(i-propyl)phenyl]butoxy]quinazoline] | 0 | +++ (+++ = 90-100% control at 100 ppm) | + (+ = 20-89% control at 400 ppm) | 80 | +++ (+++ = 90-100% control at 100 ppm) | 0 | 0 | ++ (++ = 90-100% control at 400 ppm) | - (- = 0-19% control at 400 ppm) | 0 | 0 | 0 | 0 | – |
| Brc1ccc(CCOc2ncnc3ccccc23)cc1 [Example 22, 4-[2-(4-bromophenyl)ethoxy]quinazoline] | 0 | +++ (+++ = 90-100% control at 100 ppm) | +++ (+++ = 90-100% control at 100 ppm) | 80 | +++ (+++ = 90-100% control at 100 ppm) | 0 | 20 | +++ (+++ = 90-100% control at 100 ppm) | - (- = 0-19% control at 400 ppm) | – | – | – | – | – |
| CC(C)(C)c1ccc(CCOc2ncnc3cc(Cl)ccc23)cc1 [Example 136, 7-chloro-4-[2-[4-(1,1-dimethylethyl)phenyl]ethoxy]quinazoline] | 0 | - (- = 0-19% control at 400 ppm) | - (- = 0-19% control at 400 ppm) | 0 | - (- = 0-19% control at 400 ppm) | 0 | 0 | - (- = 0-19% control at 400 ppm) | - (- = 0-19% control at 400 ppm) | 0 | 0 | 100 | 0 | – |
| CC(C)(C)c1ccc(CCCCOc2ncnc3c(F)cccc23)cc1 [Example 200, 8-fluoro-4-[4-[4-(t-butyl)phenyl]butoxy]quinazoline] | – | +++ (+++ = 90-100% control at 100 ppm) | + (+ = 20-89% control at 400 ppm) | – | +++ (+++ = 90-100% control at 100 ppm) | – | – | +++ (+++ = 90-100% control at 100 ppm) | - (- = 0-19% control at 400 ppm) | – | – | – | – | mortality at 12 ppm ([1]; corn rootworm, CRW RATE 12.00 PPM): 100%; mortality at 24 ppm ([1]; corn rootworm, CRW RATE 24.00 PPM): 100%; mortality at 200 ppm ([4]; melon aphids, sprayed squash cotyledons, RATE 200 PPM): 60%; mortality at 400 ppm ([4]; melon aphids, sprayed squash cotyledons, RATE 400 PPM): 80%; mortality at 200 ppm ([6]; Southern armyworm, sprayed squash leaves, RATE 200 PPM): 0%; mortality at 400 ppm ([6]; Southern armyworm, sprayed squash leaves, RATE 400 PPM): 0%; mortality at 200 ppm ([7]; twospotted spider mites, sprayed squash cotyledons, RATE 200 PPM): 80%; mortality at 400 ppm ([7]; twospotted spider mites, sprayed squash cotyledons, RATE 400 PPM): 100% |
| FC(F)(F)c1cccc(CCCOc2ncnc3ccccc23)c1 [Example 196, 4-[3-(3-trifluoromethylphenyl)propoxy]quinazoline] | 0 | ++ (++ = 90-100% control at 400 ppm) | - (- = 0-19% control at 400 ppm) | 0 | - (- = 0-19% control at 400 ppm) | 0 | 0 | - (- = 0-19% control at 400 ppm) | - (- = 0-19% control at 400 ppm) | 0 | 0 | 0 | 0 | – |
| Fc1cccc2c(NCCc3ccc(-c4ccccc4)cc3)ncnc12 [Example 102, 8-fluoro-N-[2-(1,1'-biphenyl)-4-ylethyl]-4-quinazolinamine] | 0 | ++ (++ = 90-100% control at 400 ppm) | +++ (+++ = 90-100% control at 100 ppm) | 90 | +++ (+++ = 90-100% control at 100 ppm) | 100 | 90 | ++ (++ = 90-100% control at 400 ppm) | ++ (++ = 90-100% control at 400 ppm) | 0 | 80 | 80 | 80 | – |
| Fc1cccc2c(OCCc3ccc(Oc4ccccc4)cc3)ncnc12 [Example 10, 8-fluoro-4-[2-(4-phenoxyphenyl)ethoxy]quinazoline] | 0 | +++ (+++ = 90-100% control at 100 ppm) | +++ (+++ = 90-100% control at 100 ppm) | 0 | +++ (+++ = 90-100% control at 100 ppm) | 100 | 0 | +++ (+++ = 90-100% control at 100 ppm) | - (- = 0-19% control at 400 ppm) | – | – | – | – | – |
| Cc1cc(C)c(CCOc2ncnc3ccccc23)c(C)c1 [Example 43, 4-[2-(2,4,6-trimethylphenyl)ethoxy]quinazoline] | 0 | ++ (++ = 90-100% control at 400 ppm) | ++ (++ = 90-100% control at 400 ppm) | 0 | ++ (++ = 90-100% control at 400 ppm) | 0 | 0 | ++ (++ = 90-100% control at 400 ppm) | - (- = 0-19% control at 400 ppm) | – | – | – | – | – |
| CCCCOc1ccc(CCOc2ncnc3c(F)cccc23)cc1 [Example 156, 8-fluoro-4-[2-(4-butoxyphenyl)ethoxy]quinazoline] | 0 | +++ (+++ = 90-100% control at 100 ppm) | +++ (+++ = 90-100% control at 100 ppm) | 100 | +++ (+++ = 90-100% control at 100 ppm) | 0 | 80 | +++ (+++ = 90-100% control at 100 ppm) | - (- = 0-19% control at 400 ppm) | 0 | 100 | 60 | 100 | – |
| CC(C)c1ccc(CCCc2ncnc3ccccc23)cc1 [Example 126, 4-[3-[4-(1-methylethyl)phenyl]propyl]quinazoline] | 0 | + (+ = 20-89% control at 400 ppm) | + (+ = 20-89% control at 400 ppm) | 80 | +++ (+++ = 90-100% control at 100 ppm) | 0 | 100 | ++ (++ = 90-100% control at 400 ppm) | - (- = 0-19% control at 400 ppm) | 0 | 100 | 0 | 100 | – |
